For one data set, the target named is T1, Histone deacetylase 8 (Homo sapiens, UniProt Q9BY41).
T1 sequence (Q9BY41 whole entry): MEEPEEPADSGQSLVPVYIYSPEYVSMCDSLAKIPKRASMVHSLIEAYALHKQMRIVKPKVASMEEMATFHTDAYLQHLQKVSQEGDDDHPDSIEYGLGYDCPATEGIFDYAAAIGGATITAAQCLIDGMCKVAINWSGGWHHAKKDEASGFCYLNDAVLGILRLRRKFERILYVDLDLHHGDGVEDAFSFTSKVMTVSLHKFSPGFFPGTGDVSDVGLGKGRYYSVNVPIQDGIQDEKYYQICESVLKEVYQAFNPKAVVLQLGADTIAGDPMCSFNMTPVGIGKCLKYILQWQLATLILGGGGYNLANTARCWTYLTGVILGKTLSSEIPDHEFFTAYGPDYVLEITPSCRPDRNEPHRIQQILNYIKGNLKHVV
As to the kind of experiment: Inhibition of human HDAC8 (379 to 382 residues) using RHKKAcKAc-AMC fluorogenic peptide as substrate by fluorescence assay.

The next data set concerns the target Histone deacetylase 1 (Homo sapiens, UniProt Q13547). Put plainly: Inhibition of human HDAC1 (379 to 382 residues) using RHKKAc-AMC fluorogenic peptide as substrate by fluorescence assay.
In data set [1] the target is T2, Protein deacetylase HDAC6 (Homo sapiens, UniProt Q9UBN7).
T2 sequence (Q9UBN7 whole entry): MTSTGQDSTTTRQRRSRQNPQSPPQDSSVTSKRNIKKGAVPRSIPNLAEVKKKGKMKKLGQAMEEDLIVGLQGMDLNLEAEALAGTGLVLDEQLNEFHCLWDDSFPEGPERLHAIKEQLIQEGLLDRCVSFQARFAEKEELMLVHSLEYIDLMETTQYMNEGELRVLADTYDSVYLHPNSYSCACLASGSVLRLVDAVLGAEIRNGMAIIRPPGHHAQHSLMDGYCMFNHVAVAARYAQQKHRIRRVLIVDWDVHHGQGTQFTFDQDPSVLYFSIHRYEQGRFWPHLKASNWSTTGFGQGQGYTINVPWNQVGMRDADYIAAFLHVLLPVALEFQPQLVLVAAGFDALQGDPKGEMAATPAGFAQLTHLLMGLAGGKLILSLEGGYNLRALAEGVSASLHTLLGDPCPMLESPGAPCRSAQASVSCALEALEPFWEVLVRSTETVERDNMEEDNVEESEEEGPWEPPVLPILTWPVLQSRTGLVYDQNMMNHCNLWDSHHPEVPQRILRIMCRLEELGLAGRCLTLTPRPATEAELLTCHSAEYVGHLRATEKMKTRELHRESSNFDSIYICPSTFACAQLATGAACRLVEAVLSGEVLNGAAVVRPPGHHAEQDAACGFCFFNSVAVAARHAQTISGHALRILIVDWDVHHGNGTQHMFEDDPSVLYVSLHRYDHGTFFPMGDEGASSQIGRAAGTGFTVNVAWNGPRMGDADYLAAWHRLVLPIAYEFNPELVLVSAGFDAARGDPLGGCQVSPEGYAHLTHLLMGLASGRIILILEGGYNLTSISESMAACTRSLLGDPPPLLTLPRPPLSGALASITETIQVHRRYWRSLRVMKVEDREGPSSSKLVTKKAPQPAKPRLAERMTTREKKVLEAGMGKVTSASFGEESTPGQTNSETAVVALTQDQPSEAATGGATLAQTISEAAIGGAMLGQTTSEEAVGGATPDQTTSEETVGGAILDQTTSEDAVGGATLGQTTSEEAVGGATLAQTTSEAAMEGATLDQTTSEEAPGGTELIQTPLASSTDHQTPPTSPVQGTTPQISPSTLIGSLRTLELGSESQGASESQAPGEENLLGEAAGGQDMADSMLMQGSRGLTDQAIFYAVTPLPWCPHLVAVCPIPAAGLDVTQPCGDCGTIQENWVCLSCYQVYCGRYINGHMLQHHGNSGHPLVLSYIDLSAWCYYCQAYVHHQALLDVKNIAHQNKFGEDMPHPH
As to the kind of experiment: Inhibition of human HDAC6 (379 to 382 residues) using RHKKAc fluorogenic peptide as substrate by fluorescence assay.

For data set [2], the system named is Mus musculus. As to the kind of experiment: In vivo inhibition of MAO-A in mouse xenografted with mouse GL26 assessed as decrease in MAO activity in tumor at 50 mg/kg by radiometric analysis. Format: functional.
Data set [3] can be described thus: Cytotoxicity against mouse GL26 cells assessed as inhibition of cell growth incubated for 48 hrs by MTT assay. Format: functional, cell-based. The note with it: GL26, 48 h.
In data set [4] the test system is U-251. Put plainly: cells. Format: functional, cell-based. The note with it: Homo sapiens, U-251, 48 h.
Description: Cytotoxicity against human TMZ-resistant U251 cells assessed as inhibition of cell growth incubated for 48 hrs by MTT assay
Data set [5] relates to GL26. Put plainly: Antitumor activity against mouse GL26 cells implanted in C57BL6 mouse assessed as reduction in tumor size at 50 mg/kg, ip daily measured for 10 days by bioluminescence assay. Format: functional, organism-based. The note with it: time 10.0 day.
Data set [6] has as its system Mus musculus. Put plainly: In vivo inhibition of MAO-A in C57BL6 mouse xenografted with mouse GL26 cells as decrease in MAO activity in brain at 50 mg/kg, ip by radiometric analysis. Format: functional, organism-based.
Data set [7] deals with Mus musculus. Put plainly: In vivo inhibition of MAO-A in mouse xenografted with mouse GL26 assessed as decrease in MAO activity in brain at 25 mg/kg, ip administered for 10 days by bioluminescence assay. To be noted: time 10.0 day. Format: functional, organism-based.
The test system of data set [8] is GL26. As to the kind of experiment: Antiproliferative activity against mouse GL26 cells assessed as decrease in number of colonies at 0.625 to 1.25 uM incubated for 48 hrs by colony formation assay. Format: functional, cell-based. To be noted: dose 0.625-1.25 µM.
Data set [9] has as its system U-251. As to the kind of experiment: cells. Format: functional, cell-based. The note with it: Homo sapiens, U-251, 48 h. The source holds these as a separate data set.
Description: Cytotoxicity against human TMZ-sensitive U251 cells assessed as inhibition of cell growth incubated for 48 hrs by MTT assay
Data set [10] is described as follows: Toxicity in mouse bearing intracranial tumor assessed as assessed as median survival time at 50 mg/kg, ip for 14 days treatment started at 5 days post-infection (Rvb=12.8 days). Format: organism-based. To be noted: in vivo, 336 h, time 14 day.
Data set [11] is described as follows: Toxicity in mouse bearing intracranial tumor assessed as assessed as median survival time at 25 mg/kg, ip treatment started at 7 dpi (Rvb=18.25 days). Format: organism-based. To be noted: in vivo, 438 h.
Data set [12] relates to U-251. As to the kind of experiment: Cytotoxicity against human U251 cells assessed as inhibition of cell growth incubated for 48 hrs by MTT assay. Format: functional, cell-based. The note with it: DDE = dose-dependent effect. (In general: Formazan colour is commonly taken as a measure of viable cells.)
Data set [13] deals with Mus musculus. Put plainly: In vivo inhibition of MAO-A in mouse xenografted with mouse GL26 assessed as decrease in MAO activity in tumor at 25 mg/kg, ip administered for 10 days by bioluminescence assay. To be noted: time 10.0 day. Format: functional, organism-based.

Active and inactive are the calls of the source. The rule behind the calls is not given here.

Broadly, the IC50 is the concentration needed to halve the response being measured.

Histone deacetylase 1, sequence (Q13547 whole entry, the tested form may be a part): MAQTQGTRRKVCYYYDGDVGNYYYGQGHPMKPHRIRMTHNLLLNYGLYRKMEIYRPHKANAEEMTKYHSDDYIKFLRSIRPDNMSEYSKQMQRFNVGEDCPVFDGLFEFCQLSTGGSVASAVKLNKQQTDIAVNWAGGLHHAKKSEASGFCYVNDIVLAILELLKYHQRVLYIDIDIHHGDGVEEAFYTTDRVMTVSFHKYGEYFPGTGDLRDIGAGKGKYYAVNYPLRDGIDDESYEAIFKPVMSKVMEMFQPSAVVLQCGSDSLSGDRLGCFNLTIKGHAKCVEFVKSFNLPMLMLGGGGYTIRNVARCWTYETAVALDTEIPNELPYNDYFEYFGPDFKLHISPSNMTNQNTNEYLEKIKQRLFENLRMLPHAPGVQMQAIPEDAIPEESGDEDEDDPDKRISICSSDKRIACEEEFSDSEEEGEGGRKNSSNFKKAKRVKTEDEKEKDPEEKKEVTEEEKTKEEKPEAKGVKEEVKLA

For the compound `C#CCN(C)CCCOc1ccc(NC(=O)CCCCCCC(=O)NO)cc1Cl`, the IC50 against Histone deacetylase 8 was found to be 330 nM; against Histone deacetylase 1, 140 nM; in data set [1], 6 nM; in data set [3] it was 6040 nM; in the data set on U-251 [4], 2730 nM; with U-251 [9], 2830 nM. For the same compound, the outcome in the data set on Mus musculus [2], in the data set on GL26 [5], in the data set on Mus musculus [6], in the data set with Mus musculus [7], in the data set with GL26 [8] and in the data set on Mus musculus [13] was Active. For the same compound, the MST in data set [10] worked out at 14.25 days; in data set [11], 17.25 days. Further, the Activity entry in the data set on U-251 [12] was “Dde”.

With `C#CCN(C)CCCOc1cc(NCc2ccc(/C=C/C(=O)NO)cc2)ccc1Cl`, the IC50 was 80 nM at Histone deacetylase 8; 510 nM at Histone deacetylase 1; 100 nM in data set [1]; 120 nM in data set [3]; 990 nM with U-251 [4]; 3240 nM in the data set with U-251 [9]. In addition, the result in the data set on Mus musculus [2], in the data set with GL26 [5], in the data set with Mus musculus [6], in the data set with Mus musculus [7] and in the data set with Mus musculus [13] was Active. Moreover, the Activity entry in the data set on GL26 [8] (DDE = dose-dependent effect) and in the data set on U-251 [12] was “Dde” in each case. Besides, the MST worked out at 12.75 days in [10] and 19.5 days in data set [11].

(Values after ChEMBL document CHEMBL5154693, “N-Methylpropargylamine-Conjugated Hydroxamic Acids as Dual Inhibitors of Monoamine Oxidase A and Histone Deacetylase for Glioma Treatment” (J Med Chem, 2022).)
